The record followed here is US20200385777A1, “METHOD FOR DETERMINING DYSBIOSIS IN THE INTESTINAL MICROBIOME” (EVOLVE BIOSYSTEMS, INC., priority 2018, published 2020).

Where only a bound is given, the exact number is not on record here.

One experiment relates to isolate 7122-2. The experiment can be described thus: MIC microdilution, fecal isolate 7122-2. As to conditions: for MIC: read-out: Minimum inhibitory concentration (MIC). Type of experiment: cell-based. The protocol: (§1) Whole genome sequencing and assembly of bacterial isolates. […] Selected isolates were grown in 20 ml LB broth overnight at 37° C. Cultures were aliquoted into 1 ml aliquots, centrifuged at 10,000×g for 5 min and the supernatant was removed. Cell pellets were resuspended in DNA/RNA Shield solution provided in DNA/RNA Shield Microbe Lysis tubes (Zymo Research, Irvine Calif.) and transferred into lysis tubes. High-molecular weight genomic DNA was extracted using the Quick-DNA Fecal/Soil
(§2) Minimal inhibitory concentrations. […] Carbenicillin was added to growth media for transformed strains at a concentration of 100 μg/ml. The microtiter plates were incubated for 24 h at 37° C. The optical density (OD) of each well was measured at 600 nm using an automated microtiter plate reader (BIO-TEK, Synergy HT). The MIC corresponded to the lowest antibiotic concentration at which no growth was detected. All tests were performed in triplicate
On the technique in general: Broth dilution looks for growth in wells or tubes with falling amounts of substance.

The next experiment has as its system isolate 7084-4. Kind of experiment: MIC microdilution, fecal isolate 7084-4. The experiment is classed as cell-based. As to conditions: for MIC: read-out: Minimum inhibitory concentration (MIC). The protocol: as §1, §2
In a further experiment the test system is isolate 7122-1. The experiment can be described thus: MIC microdilution, fecal isolate 7122-1. The experiment is classed as cell-based. As to conditions: for MIC: read-out: Minimum inhibitory concentration (MIC). The protocol: as §1, §2
In another experiment the test system is isolate 7084-1. The experiment can be described thus: MIC microdilution, fecal isolate 7084-1. The experiment is classed as cell-based. As to conditions: for MIC: read-out: Minimum inhibitory concentration (MIC). The method, then: as §1, §2
The next experiment concerns isolate 7122-9. The experiment can be described thus: MIC microdilution, fecal isolate 7122-9. Type of experiment: cell-based. As to conditions: for MIC: read-out: Minimum inhibitory concentration (MIC). The method, then:
as §1, §2

In another experiment the test system is isolate 7005-5. Kind of experiment: MIC microdilution, fecal isolate 7005-5. Type of experiment: cell-based. As to conditions: for MIC: read-out: Minimum inhibitory concentration (MIC). The method, then: as §1, §2
A further experiment relates to isolate 7084-5. Kind of experiment: MIC microdilution, fecal isolate 7084-5. The experiment is classed as cell-based. As to conditions: for MIC: read-out: Minimum inhibitory concentration (MIC). The protocol:
as §1, §2

A further experiment relates to isolate 7005-13. The experiment can be described thus: MIC microdilution, fecal isolate 7005-13. Type of experiment: cell-based. To be noted: for MIC: read-out: Minimum inhibitory concentration (MIC). The protocol: as §1, §2
Another experiment relates to isolate 7174-2. Kind of experiment: MIC microdilution, fecal isolate 7174-2. To be noted: for MIC: read-out: Minimum inhibitory concentration (MIC). The experiment is classed as cell-based. The protocol: as §1, §2
The next experiment relates to isolate 7174-5. The experiment can be described thus: MIC microdilution, fecal isolate 7174-5. The experiment is classed as cell-based. To be noted: for MIC: read-out: Minimum inhibitory concentration (MIC). The method, then: as §1, §2
Another experiment concerns isolate 7005-11. Kind of experiment: MIC microdilution, fecal isolate 7005-11. As to conditions: for MIC: read-out: Minimum inhibitory concentration (MIC). Type of experiment: cell-based. The method, then: as §1, §2
Another experiment deals with isolate 7174-4. Kind of experiment: MIC microdilution, fecal isolate 7174-4. As to conditions: for MIC: read-out: Minimum inhibitory concentration (MIC). Type of experiment: cell-based. The method, then:
as §1, §2

A further experiment deals with isolate 7005-9. Kind of experiment: MIC microdilution, fecal isolate 7005-9. Type of experiment: cell-based. As to conditions: for MIC: read-out: Minimum inhibitory concentration (MIC). The method, then: as §1, §2
The next experiment concerns DH5α. Kind of experiment: MIC microdilution, DH5α. Type of experiment: cell-based. As to conditions: for MIC: read-out: Minimum inhibitory concentration (MIC). The protocol:
as §2

Experiment [1] has as its system bacteria isolated from EMB agar from fecal samples of control infants. Kind of experiment: MIC, fecal isolates of control infants taken together. As to conditions: all fecal isolates. The experiment is classed as cell-based, Escherichia coli; Raoultella planticola. The method, then:
To confirm the presence of full length, functional ARGs and the relationship of these ARGs to individual resistance phenotypes at the strain level, bacteria isolated from EMB agar were obtained from the fecal samples of four representative control infants. Whole-genome sequencing of twelve isolates was performed on a MinION sequencer and assembly led to an average coverage of 18× (min 5.4; max 40). Taxonomic identification was confirmed via BLASTN against the NCBI nucleotide database (https://www.ncbl.nlrn.nih.gov/nucleotide) showing three isolates classified as Raoultella planticola and the remaining nine as Escherichia coli. The CARD protein sequences collection was used as query against the twelve assembled isolates via TBLASTN. […] The latter genes are likely absent on the E. coli and R. planticola genomes and present on different species.
Whole genome sequencing and assembly of bacterial isolates. […]
Minimal inhibitory concentrations. Minimal inhibitory concentrations (MICs) were determined according to Clinical and Laboratory Standards Institute guidelines for microdilution susceptibility testing {Wikler, 2006}. […] The optical density (OD) of each well was measured at 600 nm using an automated microtiter plate reader (BIO-TEK, Synergy HT). The MIC corresponded to the lowest antibiotic concentration at which no growth was detected. […]

Regarding `CO/N=C(\C(=O)N[C@@H]1C(=O)N2C(C(=O)[O-])=C(C[N+]3(C)CCCC3)CS[C@H]12)c1csc(N)n1` [Cefepime], the MIC in the experiment on isolate 7122-2 was below 4 µg/mL; in the experiment with isolate 7084-4 it was below 4 µg/mL; with isolate 7122-1, below 4 µg/mL; with isolate 7084-1, below 4 µg/mL; in the experiment with isolate 7122-9 it was below 4 µg/mL; in the experiment on isolate 7005-5, 16 µg/mL. Further, the MIC in the experiment with isolate 7084-5 is below 4 µg/mL; in the experiment on isolate 7005-13 it was 512 µg/mL; in the experiment on isolate 7174-2 it was below 4 µg/mL; in the experiment with isolate 7174-5 it was below 4 µg/mL; with isolate 7005-11, 512 µg/mL; with isolate 7174-4, below 4 µg/mL. The MIC in the experiment on isolate 7005-9 was 64 µg/mL; in the experiment on DH5α, below 4 µg/mL.
In the case of `Cc1nnc(SCC2=C(C(=O)O)N3C(=O)[C@@H](NC(=O)Cn4cnnn4)[C@H]3SC2)s1` [Cefazolin], the MIC was determined as 8 µg/mL in the experiment with isolate 7122-2; 32 µg/mL in the experiment with isolate 7084-4; 8 µg/mL in the experiment with isolate 7122-1; 32 µg/mL with isolate 7084-1; 8 µg/mL with isolate 7122-9; 64 µg/mL in the experiment on isolate 7005-5. Moreover, the MIC in the experiment on isolate 7084-5 amounted to 32 µg/mL; in the experiment on isolate 7005-13 it was 64 µg/mL; with isolate 7174-2 it was 64 µg/mL; with isolate 7174-5 it was 512 µg/mL; with isolate 7005-11, 64 µg/mL; in the experiment with isolate 7174-4, 512 µg/mL. The MIC with isolate 7005-9 is 64 µg/mL; in the experiment on DH5α it was below 4 µg/mL.
Consider `CN(C)[C@@H]1C(O)=C(C(N)=O)C(=O)[C@@]2(O)C(O)=C3C(=O)c4c(O)cccc4[C@@](C)(O)[C@H]3C[C@@H]12` [Tetracycline], for which the MIC was found to be 8 µg/mL in the experiment with isolate 7122-2; 16 µg/mL in the experiment with isolate 7084-4; 16 µg/mL in the experiment on isolate 7122-1; 16 µg/mL in the experiment with isolate 7084-1; 8 µg/mL with isolate 7122-9; 16 µg/mL with isolate 7084-5. For the same compound, the MIC in the experiment on isolate 7174-2 is 64 µg/mL; with isolate 7174-5 it was 64 µg/mL; in the experiment on isolate 7174-4, 128 µg/mL; in the experiment with DH5α it was below 4 µg/mL.
For `CC1(C)S[C@@H]2[C@H](NC(=O)[C@H](N)c3ccccc3)C(=O)N2[C@H]1C(=O)O` [Ampicillin], the “Resistant/Susceptible according to breakpoints for clinical resistance” value (shortened to “Resistant/Susceptible according”) with isolate 7122-2 (isolate 7122-2) was “(S)”; with isolate 7084-4 (isolate 7084-4), “(R)”; with isolate 7122-1 (isolate 7122-1), “(S)”; with isolate 7084-1 (isolate 7084-1), “(R)”; in the experiment on isolate 7122-9 (isolate 7122-9), “(S)”; in the experiment with isolate 7005-5 (isolate 7005-5), “(R)”. The “Resistant/Susceptible according” value in the experiment with isolate 7084-5 (isolate 7084-5), in the experiment on isolate 7005-13 (isolate 7005-13), in the experiment on isolate 7174-2 (isolate 7174-2), in the experiment on isolate 7174-5 (isolate 7174-5), in the experiment on isolate 7005-11 (isolate 7005-11) and with isolate 7174-4 (isolate 7174-4) was “(R)” in each case. For the same compound, the figures for the “Resistant/Susceptible according” value in the experiment on isolate 7005-9 (isolate 7005-9) and with DH5α were “(R)” and “(S)”, respectively. In addition, the MIC was 16 µg/mL in the experiment with isolate 7122-2; 512 µg/mL in the experiment with isolate 7084-4; 16 µg/mL with isolate 7122-1; 512 µg/mL in the experiment on isolate 7084-1; 16 µg/mL with isolate 7122-9; 128 µg/mL in the experiment on isolate 7005-5. The MIC with isolate 7084-5 worked out at 512 µg/mL; in the experiment with isolate 7005-13, 64 µg/mL; with isolate 7174-2, 512 µg/mL; with isolate 7174-5, 512 µg/mL; in the experiment with isolate 7005-11 it was 64 µg/mL; with isolate 7174-4 it was 512 µg/mL. Further, the MIC worked out at 128 µg/mL with isolate 7005-9 and 4 µg/mL in the experiment on DH5α. Further, the “Resistance among the isolates” value in [1] was “With the exception of three isolates obtained from the same infant (7174), all of the isolates displayed resistance”.
With `CO/N=C(\C(=O)N[C@@H]1C(=O)N2C(C(=O)O)=C(COC(C)=O)CS[C@H]12)c1csc(N)n1` [Cefotaxime], the “Resistant/Susceptible according” value is on record as “(S)” in the experiment on isolate 7122-2 (isolate 7122-2); “(S)” in the experiment on isolate 7084-4 (isolate 7084-4); “(S)” with isolate 7122-1 (isolate 7122-1); “(S)” in the experiment on isolate 7084-1 (isolate 7084-1); “(S)” with isolate 7122-9 (isolate 7122-9); “(R)” in the experiment with isolate 7005-5 (isolate 7005-5). The “Resistant/Susceptible according” value with isolate 7084-5 (isolate 7084-5) is given as “(S)”; with isolate 7005-13 (isolate 7005-13) it was “(R)”; in the experiment on isolate 7174-2 (isolate 7174-2) it was “(S)”; with isolate 7174-5 (isolate 7174-5), “(S)”; in the experiment on isolate 7005-11 (isolate 7005-11) it was “(R)”; in the experiment on isolate 7174-4 (isolate 7174-4), “(S)”. Besides, the “Resistant/Susceptible according” value is “(R)” with isolate 7005-9 (isolate 7005-9) and “(S)” in the experiment on DH5α. Besides, the MIC with isolate 7122-2 is below 4 µg/mL; with isolate 7084-4, below 4 µg/mL; in the experiment on isolate 7122-1 it was below 4 µg/mL; with isolate 7084-1, below 4 µg/mL; in the experiment on isolate 7122-9, below 4 µg/mL; in the experiment with isolate 7005-5, 32 µg/mL. In addition, the MIC in the experiment on isolate 7084-5 was below 4 µg/mL; with isolate 7005-13, 512 µg/mL; with isolate 7174-2 it was below 4 µg/mL; with isolate 7174-5, below 4 µg/mL; with isolate 7005-11, 512 µg/mL; with isolate 7174-4, below 4 µg/mL. Besides, the MIC was 128 µg/mL in the experiment on isolate 7005-9 and below 4 µg/mL in the experiment with DH5α.
Take Gentamicin: the “Minimum inhibitory concentration (MIC)” value with isolate 7122-2 (isolate 7122-2), in the experiment on isolate 7084-4 (isolate 7084-4), with isolate 7122-1 (isolate 7122-1), with isolate 7084-1 (isolate 7084-1), with isolate 7122-9 (isolate 7122-9) and with isolate 7005-5 (isolate 7005-5) was below 4 µg/mL in each case. Also, the “Minimum inhibitory concentration (MIC)” value in the experiment on isolate 7084-5 (isolate 7084-5), in the experiment on isolate 7005-13 (isolate 7005-13), with isolate 7174-2 (isolate 7174-2), in the experiment on isolate 7174-5 (isolate 7174-5), with isolate 7005-11 (isolate 7005-11) and in the experiment on isolate 7174-4 (isolate 7174-4) was below 4 µg/mL throughout. The “Minimum inhibitory concentration (MIC)” value with isolate 7005-9 (isolate 7005-9) and in the experiment on DH5α was below 4 µg/mL throughout. In addition, the “Resistant/Susceptible according” value in the experiment with isolate 7122-2 (isolate 7122-2), in the experiment with isolate 7084-4 (isolate 7084-4), in the experiment with isolate 7122-1 (isolate 7122-1), in the experiment on isolate 7084-1 (isolate 7084-1), with isolate 7122-9 (isolate 7122-9) and in the experiment with isolate 7005-5 (isolate 7005-5) was “(S)” each time. The “Resistant/Susceptible according” value with isolate 7084-5 (isolate 7084-5), with isolate 7005-13 (isolate 7005-13), in the experiment on isolate 7174-2 (isolate 7174-2), with isolate 7174-5 (isolate 7174-5), with isolate 7005-11 (isolate 7005-11) and with isolate 7174-4 (isolate 7174-4) was “(S)” in each case. The “Resistant/Susceptible according” value in the experiment with isolate 7005-9 (isolate 7005-9) and with DH5α was “(S)” in each case. Also, the “Resistance among the isolates” value in [1] is recorded as “No resistance”.
